Laboratory results reported in US20140179745A1, “TOPICAL OPHTHALMOLOGICAL PHARMACEUTICAL COMPOSITION CONTAINING REGORAFENIB” (Bayer Healthcare LLC, priority 2012, published 2014).

Assay: Thermodynamic solubility of regorafenib monohydrate in different solvents
Format: physicochemical
Conditions: thermodynamic from solid
Text: Regorafenib monohydrate has a limited solubility profile.

Measured: solubility

CNC(=O)c1cc(Oc2ccc(NC(=O)Nc3ccc(Cl)c(C(F)(F)F)c3)c(F)c2)ccn1 [regorafenib monohydrate, 4-{4-[({[4-chloro-3-(trifluoromethyl)phenyl]amino}carbonyl)amino]-3-fluorophenoxy}-N-methylpyridine-2-carboxamide]
< 100 µg/mL: aqueous with cosolvent or surfactant or cyclodextrin, solvent HPβ-Cyclodextrin/water (10:90) | oil or lipid, solvent Light liquid paraffin | solvent Water
